Source: US6512136B1, “Substituted 2-phenyl-1-(3,4-dihydroxy-5-nitrophenyl)-1-ethanones, their use in the treatment of some central and peripheral nervous system disorders and pharmaceutical compositions containing them” (Portela & C.A., S.A., priority 1998, dated 2003)

Tests used:
rat brain COMT = target: T1, rat brain COMT (Rattus norvegicus, UniProt P22734); test: In vitro COMT inhibition, rat brain homogenate (methylation of adrenaline to metanephrine); type: biochemical
T1 construct: Aliquots of 0.5 ml of liver and whole brain homogenates were preincubated; from tissue; host or cells: whole brain homogenate of male Wistar rats
T1 sequence (P22734 1-264): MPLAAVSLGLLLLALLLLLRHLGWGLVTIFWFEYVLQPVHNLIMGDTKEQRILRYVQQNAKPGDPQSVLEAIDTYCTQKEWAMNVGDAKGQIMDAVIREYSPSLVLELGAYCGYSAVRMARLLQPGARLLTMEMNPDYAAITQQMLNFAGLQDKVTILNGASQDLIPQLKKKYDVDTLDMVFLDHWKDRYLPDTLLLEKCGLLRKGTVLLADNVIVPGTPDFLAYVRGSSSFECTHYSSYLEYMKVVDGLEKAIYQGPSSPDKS

rat liver COMT = target: T2, rat liver COMT (Rattus norvegicus, UniProt P22734); test: In vitro COMT inhibition, rat liver homogenate (methylation of adrenaline to metanephrine); type: biochemical
T2 construct: Aliquots of 0.5 ml of liver and whole brain homogenates were preincubated; from tissue; host or cells: liver homogenate of male Wistar rats
T2 sequence (P22734 44-264 limits assumed): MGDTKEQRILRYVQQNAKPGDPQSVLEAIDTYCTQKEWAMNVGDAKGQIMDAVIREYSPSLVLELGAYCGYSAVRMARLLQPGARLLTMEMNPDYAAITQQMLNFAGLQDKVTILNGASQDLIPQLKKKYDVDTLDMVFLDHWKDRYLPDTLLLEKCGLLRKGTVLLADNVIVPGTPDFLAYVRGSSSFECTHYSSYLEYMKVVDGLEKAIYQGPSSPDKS

brain COMT = target: T3, brain COMT (Rattus norvegicus, UniProt P22734); test: Brain COMT activity in homogenates after administration of test compounds by gastric tube; type: in vivo; conditions: rat brain homogenate, mean ± S.E.M., n=4; for % inhibition of COMT activity, brain, 0.5 h: 0.5 h after administration by gastric tube; for % inhibition of COMT activity, brain, 1 h: 1 h after administration by gastric tube; for % inhibition of COMT activity, brain, 3 h: 3 h after administration by gastric tube; for % inhibition of COMT activity, brain, 6 h: 6 h after administration by gastric tube; for % inhibition of COMT activity, brain, 9 h: 9 h after administration by gastric tube
T3 construct: Aliquots of 0.5 ml of liver and whole brain homogenates were preincubated; from tissue; host or cells: whole brain homogenate of male Wistar rats
T3 sequence (P22734 1-264): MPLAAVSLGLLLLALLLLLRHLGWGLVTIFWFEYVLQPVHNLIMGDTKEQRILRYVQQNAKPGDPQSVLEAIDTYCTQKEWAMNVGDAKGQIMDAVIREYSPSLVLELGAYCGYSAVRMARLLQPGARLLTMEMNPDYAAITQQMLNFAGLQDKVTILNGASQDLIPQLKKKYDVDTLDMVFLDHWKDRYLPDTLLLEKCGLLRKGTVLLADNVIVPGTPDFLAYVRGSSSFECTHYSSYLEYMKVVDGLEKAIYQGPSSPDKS

liver COMT = target: T4, liver COMT (Rattus norvegicus, UniProt P22734); test: Liver COMT activity in homogenates after administration of test compounds by gastric tube; type: in vivo; conditions: for % inhibition of COMT activity, liver, 0.5 h / % inhibition of COMT activity, liver, 1 h / % inhibition of COMT activity, liver, 3 h / % inhibition of COMT activity, liver, 6 h / % inhibition of COMT activity, liver, 9 h: rat liver homogenate, mean ± S.E.M., n=4; for % inhibition of COMT activity, liver, 0.5 h: 0.5 h after administration by gastric tube; for % inhibition of COMT activity, liver, 1 h: 1 h after administration by gastric tube; for % inhibition of COMT activity, liver, 3 h: 3 h after administration by gastric tube; for % inhibition of COMT activity, liver, 6 h: 6 h after administration by gastric tube; for % inhibition of COMT activity, liver, 9 h: 9 h after administration by gastric tube
T4 construct: Aliquots of 0.5 ml of liver and whole brain homogenates were preincubated; from tissue; host or cells: liver homogenate of male Wistar rats
T4 sequence (P22734 44-264 limits assumed): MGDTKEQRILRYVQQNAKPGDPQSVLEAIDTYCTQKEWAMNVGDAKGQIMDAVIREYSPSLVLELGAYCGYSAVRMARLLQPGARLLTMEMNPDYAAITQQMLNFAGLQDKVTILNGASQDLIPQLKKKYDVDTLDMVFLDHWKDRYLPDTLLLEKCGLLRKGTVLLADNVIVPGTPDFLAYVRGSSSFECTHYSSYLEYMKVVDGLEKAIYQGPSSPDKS

rats = test: Behavioural testing: potentiation of amphetamine-induced hyperactivity (locomotor activity, stereotypies); type: in vivo, rat; conditions: given p.o. six hours before amphetamine challenge (0.5, 2.0, 4.0 mg/kg s.c.)

| SMILES | IC50 (rat brain COMT) | IC50 (rat liver COMT) | % inhibition of COMT activity, brain, 0.5 h (brain COMT) | % inhibition of COMT activity, brain, 1 h (brain COMT) | % inhibition of COMT activity, brain, 3 h (brain COMT) | % inhibition of COMT activity, brain, 6 h (brain COMT) | % inhibition of COMT activity, brain, 9 h (brain COMT) | % inhibition of COMT activity, liver, 0.5 h (liver COMT) | % inhibition of COMT activity, liver, 1 h (liver COMT) | % inhibition of COMT activity, liver, 3 h (liver COMT) | % inhibition of COMT activity, liver, 6 h (liver COMT) | % inhibition of COMT activity, liver, 9 h (liver COMT) | pattern of locomotor activity and stereotyped behaviour versus corresponding controls (rats) | inhibitory profile on brain versus liver COMT after oral administration (liver COMT; rat, comparison of brain and liver COMT inhibition (Table 2)) |
| --- | --- | --- | --- | --- | --- | --- | --- | --- | --- | --- | --- | --- | --- | --- |
| O=C(CCc1ccccc1)c1cc(O)c(O)c([N+](=O)[O-])c1 [C] | 3.1 nM | 829 nM | 89.9 ± 0.7% | 86.2 ± 0.5% | 59.8 ± 5.8% | 33.4 ± 7.0% | 0.4 ± 5.3% | 98.4 ± 0.3% | 97.8 ± 0.2% | 95.0 ± 0.7% | 70.8 ± 12.8% | 39.9 ± 11.1% |  |  |
| O=C(c1ccccc1)c1cc(O)c(O)c([N+](=O)[O-])c1 [Compound A, 3,4-dihydroxy-5-nitrobenzophenone] | 7.1 nM | 935 nM | 96.3 ± 0.4% | 96.8 ± 0.3% | 97.0 ± 0.3% | 85.8 ± 7.5% | 34.9 ± 6.0% | 99.0 ± 0.2% | 98.7 ± 0.2% | 96.9 ± 2.5% | 80.5 ± 7.3% | 31.7 ± 5.5% |  |  |
| O=C(Cc1ccccc1)c1cc(O)c(O)c([N+](=O)[O-])c1 [Compound B, 1-(3,4-Dihydroxy-5-nitrophenyl)-2-phenyl-1-ethanone] |  |  |  |  |  |  |  |  |  |  |  |  | same pattern of locomotor activity and stereotyped behaviour as their corresponding controls |  |
| O=C(CCCc1ccccc1)c1cc(O)c(O)c([N+](=O)[O-])c1 [D] | 2.9 nM | 1850 nM | 85.1 ± 1.7% | 69.3 ± 5.1% | 33.5 ± 4.4% | 26.7 ± 4.0% | 12.2 ± 5.8% | 97.5 ± 0.1% | 95.3 ± 0.8% | 67.5 ± 7.8% | 52.0 ± 9.5% | 39.0 ± 13.2% |  |  |
| O=C(CCCCc1ccccc1)c1cc(O)c(O)c([N+](=O)[O-])c1 [E] | 6.7 nM | 1280 nM | 87.4 ± 1.3% | 74.2 ± 4.2% | 25.0 ± 3.1% | −5.6 ± 7.5% | −6.7 ± 5.0% | 99.2 ± 0.1% | 98.9 ± 0.3% | 88.1 ± 3.9% | 36.0 ± 6.3% | −4.0 ± 8.0% |  | much more potent upon liver COMT than brain COMT |
